Test results taken from US4962119A, “Triazole derivatives of fenamates as antiinflammatory agents” (Warner-Lambert Company, priority 1989, dated 1990).

Tested on: 5-Lipoxygenase
Experiment: ARBL whole cell 5-lipoxygenase assay (inhibition of LTB4 formation in RBL-1 cells, RIA)
Type: cell-based, rat
Settings: calcium ionophore A23187 (5 μM)
Text: ARBL/ARBC Whole Cell 5-Lipoxygenase and Cyclcoxygenase Assays
Cells are harvested by centrifugation.

FC(F)(F)c1cccc(Nc2ccccc2-c2n[nH]c(=S)[nH]2)c1 [Example 4, 5-[2-[(3-trifluoromethylphenyl)amino]phenyl]-2,4-dihydro-3H-1,2,4-triazole-3-thione]
ARBL: % inhibition of LTB4 at 16 μM: N (Less than 40% inhibiton)
